Results on 23 compounds are retold here after patent US9096624B2 (OSI Pharmaceuticals, LLC, priority 2009, dated 2015).

The target of assay [1] is T1, FAK (Homo sapiens, UniProt Q05397). The experiment in a line: Cell-based capture ELISA for inhibition of FAK autophosphorylation [pY397] in MiaPaCa2 cells. The method, then:
Cell-Based Assays for Inhibition of FAK Autophosphorylation: MiaPaCa2 and U87MG
ELISA kit from Invitrogen (KHO0441).
Reagents Provided in Biosource FAK [pY397]
The cells were then suspended in cell assay medium.
(In general: In an ELISA, binding on a coated surface is turned into a signal by an enzyme label.)

For assay [2], the target named is T1, FAK. Briefly: biochemical.
The mark [3] stands for this setting: MIA-PaCa2 cells, + 50% mouse plasma (Table 2), read-out: Mean FAK Cell Mechanistic IC50 + 50% mP MIA-PaCa2.
The mark [4] stands for this setting: MIA-PaCa2 cells on fibronectin, 2 h, no plasma, read-out: Mean FAK Cell Mechanistic IC50 MIA-PaCa2.
Where [5] appears, read: MIA-PaCa2 cells, + 50% human plasma, read-out: Mean FAK Cell Mechanistic IC50 + 50% hP MIA-PaCa2.

Structures are written as SMILES. pIC50: −log10 of the molar value.

T1 sequence (Q05397 whole entry): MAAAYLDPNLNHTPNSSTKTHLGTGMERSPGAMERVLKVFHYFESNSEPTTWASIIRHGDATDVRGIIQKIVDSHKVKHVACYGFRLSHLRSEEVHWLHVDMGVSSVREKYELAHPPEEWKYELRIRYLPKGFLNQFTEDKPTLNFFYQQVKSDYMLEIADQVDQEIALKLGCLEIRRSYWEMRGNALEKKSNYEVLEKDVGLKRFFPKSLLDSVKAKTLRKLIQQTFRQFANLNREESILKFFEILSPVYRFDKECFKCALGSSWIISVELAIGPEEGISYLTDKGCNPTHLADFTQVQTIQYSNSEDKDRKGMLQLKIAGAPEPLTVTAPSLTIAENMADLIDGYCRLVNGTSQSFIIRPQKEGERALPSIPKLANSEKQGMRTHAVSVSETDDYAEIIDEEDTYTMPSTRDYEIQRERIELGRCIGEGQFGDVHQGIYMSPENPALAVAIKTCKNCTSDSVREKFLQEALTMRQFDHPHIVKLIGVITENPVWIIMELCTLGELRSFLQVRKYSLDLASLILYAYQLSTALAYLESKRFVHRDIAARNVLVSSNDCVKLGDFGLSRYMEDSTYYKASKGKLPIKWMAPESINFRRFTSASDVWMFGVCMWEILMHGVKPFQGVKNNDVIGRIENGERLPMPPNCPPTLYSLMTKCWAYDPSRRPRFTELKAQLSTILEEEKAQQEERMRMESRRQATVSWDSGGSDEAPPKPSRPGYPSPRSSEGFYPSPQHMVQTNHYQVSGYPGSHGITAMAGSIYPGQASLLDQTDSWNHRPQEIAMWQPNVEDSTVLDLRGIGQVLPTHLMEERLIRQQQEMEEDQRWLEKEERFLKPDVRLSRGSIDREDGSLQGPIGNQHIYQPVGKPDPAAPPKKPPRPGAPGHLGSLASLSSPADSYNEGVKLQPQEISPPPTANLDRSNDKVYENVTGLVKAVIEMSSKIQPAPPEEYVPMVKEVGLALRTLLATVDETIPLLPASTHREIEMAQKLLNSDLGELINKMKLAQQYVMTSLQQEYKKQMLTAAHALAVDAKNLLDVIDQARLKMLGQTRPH

On to `CN(c1ncccc1CNc1nc(Nc2ccc(CP(=O)(OCCc3ccsc3)OCCc3ccsc3)cc2)ncc1C(F)(F)F)S(C)(=O)=O` [Example 33, bis[2-(thiophen-3-yl)ethyl] [4-({4-[({2-[methyl(methylsulfonyl)amino]pyridin-3-yl}methyl)amino]-5-(trifluoromethyl)pyrimidin-2-yl}amino)benzyl]phosphonate], for which the pIC50 (in general, −log10 of the IC50, conventionally taken in molar units) is less than 5.00 at FAK [1] (setting [3]) and more than 6.00 against FAK [2].
For `CN(c1ncccc1CNc1nc(Nc2ccc(CP(=O)(OCC3CCC3)OCC3CCC3)cc2)ncc1C(F)(F)F)S(C)(=O)=O` [Example 34, bis(cyclobutylmethyl) [4-({4-[({2-[methyl(methylsulfonyl)amino]pyridin-3-yl}methyl)amino]-5-(trifluoromethyl)pyrimidin-2-yl}amino)benzyl]phosphonate], in that order: 5.00 to 6.00 and more than 6.00.
For `CC(C)OP(=O)(Cc1cccc(Nc2ncc(C(F)(F)F)c(NCc3cccnc3N(C)S(C)(=O)=O)n2)c1)OC(C)C` [Example 35, Dipropan-2-yl [3-({4-[({2-[methyl(methylsulfonyl)amino]pyridin-3-yl}methyl)amino]-5-(trifluoromethyl)pyrimidin-2-yl}amino)benzyl]phosphonate], in that order: 5.00 to 6.00 and more than 6.00.
Taken in the same sequence, the figures for `COP(=O)(OC)c1ccc(Nc2ncc(C(F)(F)F)c(NCc3cccnc3N(C)S(C)(=O)=O)n2)cc1` [Example 36, Dimethyl [4-({4-[({2-[methyl(methylsulfonyl)amino]pyridin-3-yl}methyl)amino]-5-(trifluoromethyl)pyrimidin-2-yl}amino)phenyl]phosphonate] were more than 6.00 and more than 6.00.
For the compound `CCCOP(=O)(OCCC)c1ccc(Nc2ncc(C(F)(F)F)c(NCc3cccnc3N(C)S(C)(=O)=O)n2)cc1` [Example 37, dipropyl [4-({4-[({2-[methyl(methylsulfonyl)amino]pyridin-3-yl}methyl)amino]-5-(trifluoromethyl)pyrimidin-2-yl}amino)phenyl]phosphonate], the pIC50 on FAK [1] (setting [3]) is 5.00 to 6.00; at FAK [2], more than 6.00.
For the compound `CC(C)OP(=O)(OC(C)C)c1ccc(Nc2ncc(C(F)(F)F)c(NCc3cccnc3N(C)S(C)(=O)=O)n2)cc1` [Example 38, dipropan-2-yl [4-({4-[({2-[methyl(methylsulfonyl)amino]pyridin-3-yl}methyl)amino]-5-(trifluoromethyl)pyrimidin-2-yl}amino)phenyl]phosphonate], the pIC50 on FAK [1] (setting [3]) is 5.00 to 6.00; against FAK [2] it was more than 6.00.
For `CCOP(=O)(OCC)c1cccc(Nc2ncc(C(F)(F)F)c(NCc3cccnc3N(C)S(C)(=O)=O)n2)c1` [Example 39, diethyl [3-({4-[({2-[methyl(methylsulfonyl)amino]pyridin-3-yl}methyl)amino]-5-(trifluoromethyl)pyrimidin-2-yl}amino)phenyl]phosphonate], the pIC50 at FAK [1] (setting [3]) is 5.00 to 6.00; on FAK [2], more than 6.00.
Turning to `CCOP(=O)(O)c1ccc(Nc2ncc(C(F)(F)F)c(NCc3cccnc3N(C)S(C)(=O)=O)n2)cc1` [Example 40, Ethyl hydrogen [4-({4[({2-[methyl(methylsulfonyl)amino]pyridin-3-yl}methyl)amino]-5-(trifluoromethyl)pyrimidin-2-yl}amino)phenyl]phosphonate], the pIC50 at FAK [1] (setting [4]) was 5.00 to 6.00; at FAK [1] (setting [5]), 5.00 to 6.00; against FAK [2], more than 6.00.
For the compound `CCOP(=O)(O)Cc1ccc(Nc2ncc(C(F)(F)F)c(NCc3cccnc3N(C)S(C)(=O)=O)n2)cc1` [Example 42, Ethyl hydrogen [4-({4-[({2-[methyl(methylsulfonyl)amino]pyridin-3-yl}methyl)amino]-5-(trifluoromethyl)pyrimidin-2-yl}amino)benzyl]phosphonate], the pIC50 at FAK [1] (setting [4]) was 5.00 to 6.00; at FAK [1] (setting [5]), 5.00 to 6.00; against FAK [2] it was more than 6.00.
Consider `CN(c1ncccc1CNc1nc(Nc2cccc(CP(=O)(O)O)c2)ncc1C(F)(F)F)S(C)(=O)=O` [Example 43, [3-({4-[({2-[Methyl(methylsulfonyl)amino]pyridin-3-yl}methyl)amino]-5-(trifluoromethyl)pyrimidin-2-yl}amino)benzyl]phosphonic acid], for which the pIC50 is 5.00 to 6.00 on FAK [1] (setting [4]), 5.00 to 6.00 on FAK [1] (setting [5]), 5.00 to 6.00 at FAK [1] (setting [3]) and more than 6.00 at FAK [2].
On to `CCOP(=O)(O)Cc1cccc(Nc2ncc(C(F)(F)F)c(NCc3cccnc3N(C)S(C)(=O)=O)n2)c1` [Example 44, Ethyl hydrogen [3-({4[({2-[methyl(methylsulfonyl)amino]pyridin-3-yl}methyl)amino]-5-(trifluoromethyl)pyrimidin-2-yl}amino)benzyl]phosphonate], for which the pIC50 is less than 5.00 on FAK [1] (setting [4]), less than 5.00 at FAK [1] (setting [5]) and more than 6.00 against FAK [2].
For `CCOP(C)(=O)Cc1ccc(Nc2ncc(C(F)(F)F)c(NCc3cccnc3N(C)S(C)(=O)=O)n2)cc1` (stereo not shown) [Example 45, Ethyl methyl[4-({4-[({2-[methyl(methylsulfonyl)amino]pyridin-3-yl}methyl)amino]-5-(trifluoromethyl)pyrimidin-2-yl}amino)benzyl]phosphinate], the pIC50 on FAK [1] (setting [4]), on FAK [1] (setting [5]) and against FAK [2] was more than 6.00 each time.
On to `CCOP(=O)(Cc1ccc(Nc2ncc(C(F)(F)F)c(NCc3cccc([S+](C)[O-])c3)n2)cc1)OCC` (stereo not shown) [Example 47, diethyl (4-{[4-{[3-(methylsulfinyl)benzyl]amino}-5-(trifluoromethyl)pyrimidin-2-yl]amino}benzyl)phosphonate], for which the pIC50 on FAK [1] (setting [3]) is 5.00 to 6.00; against FAK [2], more than 6.00.
Taken in the same sequence, the figures for `CCOP(=O)(Cc1ccc(Nc2ncc(Cl)c(Nc3ccccc3C(=O)NC)n2)cc1)OCC` [Example 48, Diethyl {4-[(5-chloro-4-{[2-(methylcarbamoyl)phenyl]amino}pyrimidin-2-yl)amino]benzyl}phosphonate] were 5.00 to 6.00 and more than 6.00.
Turning to `CCOP(=O)(Cc1ccc(Nc2ncc(Br)c(Nc3ccccc3C(=O)NC)n2)cc1)OCC` [Example 49, Diethyl {4-[(5-bromo-4-{[2-(methylcarbamoyl)phenyl]amino}pyrimidin-2-yl)amino]benzyl}phosphonate], the pIC50 on FAK [1] (setting [4]), on FAK [1] (setting [5]) and on FAK [2] was more than 6.00 throughout.
`CCOP(=O)(Cc1ccc(Nc2ncc(C(F)(F)F)c(NCc3cccnc3N(C)S(C)(=O)=O)n2)cc1)c1ccccc1` (stereo not shown) [Example 50, Ethyl [4-({4-[({2-[methyl(methylsulfonyl)amino]pyridin-3-yl}methyl)amino]-5-(trifluoromethyl)pyrimidin-2-yl}amino)benzyl]phenylphosphinate]: the pIC50 on FAK [1] (setting [3]) is 5.00 to 6.00; against FAK [2] it was more than 6.00.
Regarding `CCOP(=O)(Cc1cccc(Nc2ncc(C(F)(F)F)c(NCc3cccnc3N(C)S(C)(=O)=O)n2)c1)c1ccccc1` (stereo not shown) [Example 51, Ethyl [3-({4-[({2-[methyl(methylsulfonyl)amino]pyridin-3-yl}methyl)amino]-5-(trifluoromethyl)pyrimidin-2-yl}amino)benzyl]phenylphosphinate], the pIC50 on FAK [1] (setting [3]) was less than 5.00; against FAK [2], more than 6.00.
`CCOP(C)(=O)Cc1ccc(Nc2ncc(C(F)(F)F)c(Nc3ccccc3C(=O)NC)n2)c(OC)c1` (stereo not shown) [Example 52, Ethyl (3-methoxy-4-{[4-{[2-(methylcarbamoyl)phenyl]amino}-5-(trifluoromethyl)pyrimidin-2-yl]amino}benzyl)methylphosphinate]: the negative-log IC50 (pIC50) on FAK [1] (setting [4]), at FAK [1] (setting [5]) and at FAK [2] was more than 6.00 throughout.
Consider `CCCCOP(=O)(Cc1cccc(Nc2ncc(C(F)(F)F)c(NCc3cccnc3N(C)S(C)(=O)=O)n2)c1)OCCCC` [Example 54, dibutyl [3-({4-[({2-[methyl(methylsulfonyl)amino]pyridin-3-yl}methyl)amino]-5-(trifluoromethyl)pyrimidin-2-yl}amino)benzyl]phosphonate], for which the pIC50 on FAK [1] (setting [3]) was less than 5.00; at FAK [2], more than 6.00.
As to `CN(c1ncccc1CNc1nc(Nc2cccc(CP(=O)(OCC(C)(C)C)OCC(C)(C)C)c2)ncc1C(F)(F)F)S(C)(=O)=O` [Example 55, bis(2,2-dimethylpropyl) [3-({4-[({2-[methyl(methylsulfonyl)amino]pyridin-3-yl}methyl)amino]-5-(trifluoromethyl)pyrimidin-2-yl}amino)benzyl]phosphonate], the pIC50 on FAK [1] (setting [3]) is less than 5.00; against FAK [2] it was more than 6.00.
As for `COP(=O)(Cc1cccc(Nc2ncc(C(F)(F)F)c(NCc3cccnc3N(C)S(C)(=O)=O)n2)c1)OC` [Example 56, dimethyl [3-({4-[({2-[methyl(methylsulfonyl)amino]pyridin-3-yl}methyl)amino]-5-(trifluoromethyl)pyrimidin-2-yl}amino)benzyl]phosphonate], the pIC50 at FAK [1] (setting [4]), at FAK [1] (setting [5]) and on FAK [2] was more than 6.00 throughout.
`CCCOP(=O)(OCCC)c1cccc(Nc2ncc(C(F)(F)F)c(NCc3cccnc3N(C)S(C)(=O)=O)n2)c1` [Example 57, dipropyl [3-({4-[({2-[methyl(methylsulfonyl)amino]pyridin-3-yl}methyl)amino]-5-(trifluoromethyl)pyrimidin-2-yl}amino)phenyl]phosphonate]: the pIC50 is 5.00 to 6.00 at FAK [1] (setting [3]) and more than 6.00 on FAK [2].
Turning to `CC(C)OP(=O)(OC(C)C)c1cccc(Nc2ncc(C(F)(F)F)c(NCc3cccnc3N(C)S(C)(=O)=O)n2)c1` [Example 58, dipropan-2-yl [3-({4-[({2-[methyl(methylsulfonyl)amino]pyridin-3-yl}methyl)amino]-5-(trifluoromethyl)pyrimidin-2-yl}amino)phenyl]phosphonate], the pIC50 was 5.00 to 6.00 at FAK [1] (setting [3]) and more than 6.00 at FAK [2].
